Measured values taken from article PMC12324462 (bioRxiv, 2025).

Target: CDK9 (Homo sapiens, UniProt P50750)
Assay: in vitro kinase assay
Type: biochemical

CDK9, sequence (P50750 whole entry): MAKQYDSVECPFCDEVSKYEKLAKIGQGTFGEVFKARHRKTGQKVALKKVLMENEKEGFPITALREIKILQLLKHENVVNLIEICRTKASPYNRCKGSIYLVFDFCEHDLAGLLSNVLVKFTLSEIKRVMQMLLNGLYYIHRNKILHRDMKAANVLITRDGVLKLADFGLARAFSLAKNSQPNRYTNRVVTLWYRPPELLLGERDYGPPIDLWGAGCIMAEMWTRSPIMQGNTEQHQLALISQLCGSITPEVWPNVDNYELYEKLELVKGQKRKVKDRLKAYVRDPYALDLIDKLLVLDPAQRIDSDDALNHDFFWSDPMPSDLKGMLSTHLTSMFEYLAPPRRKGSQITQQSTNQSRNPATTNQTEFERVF

Cc1cc(O)c(-c2ccc([C@@H](C)CN(C)C)cc2)c2c1[nH]c(=O)c1sccc12 [OTS964] was tested, and the IC50 was 650 nM.
